Columns and labels:
Format in all cases: physicochemical
[1] = Solid stability (Test Example 1): purity after storage at 60° C., 75% relative humidity, 5 days; conditions: stored at 60° C. and relative humidity of 75% for 5 days; hydrochloride
Procedure: Each of (1) amorphous biphenylcarboxylic acid hydrochloride (purity: 97.22%), (2) α type crystal of biphenylcarboxylic acid hydrochloride (purity: 99.56%) and (3) β type crystal of biphenylcarboxylic acid hydrochloride (purity: 99.84%) was stored at 60° C. and at a relative humidity of 75% for 5 days. Purities after the storage were (1) 94.99%, (2) 99.55% and (3) 99.65%, respectively.

[2] = Crystal form stability during preservation under usual conditions or medicine preparation steps; conditions: preservation under usual conditions (25° C., 60% relative humidity) or during pressurization, pulverization and like preparation steps
[3] = Solid stability (Test Example 2): purity after storage for 8 weeks under four conditions
Procedure: Each of (A) the α type crystal of biphenylcarboxylic acid hydrochloride (purity 99.8%) and (B) the γ type crystal of biphenylcarboxylic acid hydrochloride (purity 99.8%) were stored (1) at 40° C. for 8 weeks, (2) at 60° C. for 8 weeks, (3) at 40° C. and at a relative humidity of 75% for 8 weeks and (4) at 40° C. and at a relative humidity of 90% for 8 weeks.

[4] = stored at 40° C. and relative humidity of 75% for 8 weeks
[5] = stored at 40° C. and relative humidity of 90% for 8 weeks

Purity after the storage [1] | Purity after the storage [3, 4] | Purity after the storage [3, 5] | Purity after the storage ([3]; stored at 40° C. for 8 weeks) | Purity after the storage ([3]; stored at 60° C. for 8 weeks) | Compound | Change of crystal form [2]
99.65% |  |  |  |  | Cc1cc(-c2ccc(C(=O)O)c(C(C)C)c2)cc(C)c1OCCN[C@@H](C)[C@H](O)c1ccc(O)cc1.Cl [β type crystal, 4′-{2-[(1S,2R)-2-hydroxy-2-(4-hydroxyphenyl)-1-methylethylamino]ethoxy}-3-isopropyl-3′,5′-dimethylbiphenyl-4-carboxylic acid hydrochloride] | do not cause mutual changes in the crystal forms
99.55% | 99.58% | 99.51% | 99.79% | 99.78% | Cc1cc(-c2ccc(C(=O)O)c(C(C)C)c2)cc(C)c1OCCN[C@@H](C)[C@H](O)c1ccc(O)cc1.Cl [α type crystal, 4′-{2-[(1S,2R)-2-hydroxy-2-(4-hydroxyphenyl)-1-methylethylamino]ethoxy}-3-isopropyl-3′,5′-dimethylbiphenyl-4-carboxylic acid hydrochloride] | do not cause mutual changes in the crystal forms
 | 99.87% | 98.20% | 99.82% | 99.88% | 4′-{2-[(1S,2R)-2-hydroxy-2-(4-hydroxyphenyl)-1-methylethylamino]ethoxy}-3-isopropyl-3′,5′-dimethylbiphenylcarboxylic acid hydrochloride [γ type crystal] | do not cause mutual changes in the crystal forms
94.99% |  |  |  |  | Cc1cc(-c2ccc(C(=O)O)c(C(C)C)c2)cc(C)c1OCCN[C@@H](C)[C@H](O)c1ccc(O)cc1.Cl [amorphous biphenylcarboxylic acid hydrochloride] [4′-{2-[(1S,2R)-2-hydroxy-2-(4-hydroxyphenyl)-1-methylethylamino]ethoxy}-3-isopropyl-3′,5′-dimethylbiphenyl-4-carboxylic acid hydrochloride, reference compound] | 

Reference: patent US20080076826A1, “POLYMORPHIC CRYSTAL OF 4'-{2-[ (1S, 2R) - 2- HYDROXY -2- (4-HYDROXYPHENYL) -1- METHYLETHYLAMINO] ETHOXY} - 3 - ISOPROPYL-3', 5' -DIMETHYLBIPHENYL - 4 - CARBOXYLIC ACID HYDROCHLORIDE” (KISSEI PHARMACEUTICAL CO., LTD., priority 2005, published 2008)
